Data reported in patent US20190030114A1, “ISOFORM-SPECIFIC CALPAIN INHIBITORS, METHODS OF IDENTIFICATION, AND USES THEREOF” (WESTERN UNIVERSITY OF HEALTH SCIENCES, priority 2014, published 2019).
“Also recorded” adds a separate entry of the source. Like-named read-outs stand apart in the source and are kept apart here. Residues, ends and D or L forms follow the SMILES beside them. *: point of attachment. Cbz = O=C(OCc1ccccc1)*; CH2F = FC*

Tests used:
[1] = target: T1, calpain-1 (Homo sapiens, UniProt P07384); test: in vitro calpain-1 inhibition, succinic-Leu-Tyr-AMC substrate; format: biochemical; details: n = 3-5; for Ki: Example 13, read-out: Ki Calpain-1
T1 sequence (P07384 1-714): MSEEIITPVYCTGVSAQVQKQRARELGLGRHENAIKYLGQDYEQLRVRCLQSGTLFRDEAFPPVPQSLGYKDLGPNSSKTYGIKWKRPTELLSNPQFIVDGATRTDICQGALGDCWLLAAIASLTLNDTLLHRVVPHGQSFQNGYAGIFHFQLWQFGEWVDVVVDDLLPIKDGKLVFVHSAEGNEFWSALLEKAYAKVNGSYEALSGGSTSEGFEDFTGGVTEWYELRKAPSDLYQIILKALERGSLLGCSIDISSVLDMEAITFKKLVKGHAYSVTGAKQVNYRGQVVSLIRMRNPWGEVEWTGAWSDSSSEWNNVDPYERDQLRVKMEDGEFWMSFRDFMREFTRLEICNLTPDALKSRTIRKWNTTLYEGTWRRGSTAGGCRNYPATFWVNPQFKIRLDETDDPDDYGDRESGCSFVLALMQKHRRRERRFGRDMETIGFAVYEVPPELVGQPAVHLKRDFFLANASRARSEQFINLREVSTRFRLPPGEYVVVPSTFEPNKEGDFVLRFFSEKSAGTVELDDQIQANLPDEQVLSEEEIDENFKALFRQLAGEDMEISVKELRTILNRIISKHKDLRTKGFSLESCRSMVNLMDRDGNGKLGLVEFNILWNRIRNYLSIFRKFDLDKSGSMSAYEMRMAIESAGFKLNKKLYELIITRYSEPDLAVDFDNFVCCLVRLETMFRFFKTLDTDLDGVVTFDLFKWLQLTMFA
T1 sequence (P04632 1-268 partner): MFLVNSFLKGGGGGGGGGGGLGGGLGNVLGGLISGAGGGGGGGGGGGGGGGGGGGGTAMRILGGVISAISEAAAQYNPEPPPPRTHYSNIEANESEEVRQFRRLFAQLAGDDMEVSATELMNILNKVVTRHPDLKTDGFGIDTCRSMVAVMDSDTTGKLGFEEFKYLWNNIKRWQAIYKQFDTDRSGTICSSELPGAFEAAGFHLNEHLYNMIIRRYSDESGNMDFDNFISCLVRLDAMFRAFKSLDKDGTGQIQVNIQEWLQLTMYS
Procedure: (§1) Formula 1, where chiral center 1 is the L-form and chiral center 2 is a racemic mixture of D- and L- in this example was introduced at various concentrations (from 1 nM to 10 μM) into an in vitro mix comprising succinic-Leu-Tyr-AMC and calpain-1 or calpain-2 (Sasaki et al, 1984), and the kinetics of the loss of fluorescence were determined for each of the calpains (Powers et al, 2000). […] Therefore, the assessment of selectivity described herein was different than the prior teaching.
(§2) Formula 1A, where chiral center 1 is the S-form and chiral center 2 is the S-form was separated from the S-R-form (Formula 1B) using methods that are well-known methods for separating diastereoisomers. Formula 1A, which is also referred to herein as compound 18A, in this example was introduced at various concentrations into an in vitro mix comprising succinic-Leu-Tyr-AMC and μ-calpain or m-calpain (Sasaki et al, 1984), and the kinetics of the loss of fluorescence were determined for each of the calpains.

[2] = target: T2, calpain-2 (Homo sapiens, UniProt P17655); test: in vitro calpain-2 inhibition, succinic-Leu-Tyr-AMC substrate; format: biochemical; details: for Ki: Example 13, read-out: Ki Calpain-2; for Ki / IC50: n = 3-4
T2 sequence (P17655 1-700): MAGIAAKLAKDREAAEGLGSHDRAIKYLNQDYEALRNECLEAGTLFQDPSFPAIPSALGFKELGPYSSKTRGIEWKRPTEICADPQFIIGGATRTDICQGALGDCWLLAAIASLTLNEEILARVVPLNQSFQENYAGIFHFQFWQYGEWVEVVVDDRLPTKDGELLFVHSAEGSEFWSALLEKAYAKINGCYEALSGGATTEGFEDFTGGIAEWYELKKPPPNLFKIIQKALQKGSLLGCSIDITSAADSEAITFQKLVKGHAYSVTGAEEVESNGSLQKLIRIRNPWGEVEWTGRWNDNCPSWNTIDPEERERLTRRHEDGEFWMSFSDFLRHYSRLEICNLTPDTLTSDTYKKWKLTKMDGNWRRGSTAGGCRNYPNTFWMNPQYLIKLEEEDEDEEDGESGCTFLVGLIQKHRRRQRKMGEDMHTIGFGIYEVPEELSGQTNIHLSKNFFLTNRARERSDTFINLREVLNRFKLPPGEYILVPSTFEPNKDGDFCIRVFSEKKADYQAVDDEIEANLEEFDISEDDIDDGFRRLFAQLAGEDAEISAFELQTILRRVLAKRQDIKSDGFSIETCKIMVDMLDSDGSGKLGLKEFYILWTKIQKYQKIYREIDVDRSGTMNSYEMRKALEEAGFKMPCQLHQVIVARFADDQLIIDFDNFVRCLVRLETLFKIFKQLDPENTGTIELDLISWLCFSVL
T2 sequence (P04632 1-268 partner): T1 sequence (P04632 1-268 partner)
Procedure: as §1, §2

[3] = target: T1, calpain-1; details: cited from earlier work
[4] = test system: stratum radiatum of field CA1 in acute rat hippocampal slices; test: field EPSP recording, TBS-induced LTP in acute rat hippocampal slices; format: cell-based
Procedure: Results are expressed as percent of the average values over a 10 min baseline period and are means±S.E.M. of the indicated number of experiments.
FIG. 3A: Field recording of excitatory postsynaptic potentials (EPSPs) performed in stratum radiatum of field CA1 in acute rat hippocampal slices in the presence or absence of 200 nM of the calpain-2 selective inhibitor, Formula I, (mCalp-I in the drawing). Preincubation with mCalp-I enhances LTP. Results are expressed as percent of the average values over a 10 min baseline period and are means±S.E.M. of the indicated number of experiments.
Results are expressed as percent of the average values over the 10 min baseline period and are means±S.E.M. of the indicated number of experiments.
Generic calpain inhibitors block LTP when administered before LTP induction. Field recording of excitatory postsynaptic potentials (EPSPs; FIG. 2) was performed in stratum radiatum of field CA1 in acute rat hippocampal slices.
A calpain 2-selective inhibitor enhances LTP. […]

[5] = test system: cultured cortical neurons; test: Bic- and 4-AP-induced neuroprotection against starvation, Hoechst staining; format: cell-based; details: mCalp-I 200 nM
Excerpt: Neuronal death was observed and quantified by Hoechst staining. 300-500 neurons were counted for each group in three to 6 independent experiments. *p<0.05; ns, no significant difference; one-way ANOVA followed by Bonferroni test. n=3-6. Error Bar indicates SEM
Neuronal death was observed and quantified by Hoechst staining. 300-500 neurons were counted for each group in three to 6 independent experiments. *p<0.05; ns, no significant difference; one-way ANOVA followed by Bonferroni test. n=3-6. Error Bar indicates SEM (FIG. 6).

[6] = test system: Akt and ERK; test: Akt and ERK phosphorylation in cultured cortical neurons, immunoblot; format: cell-based; details: for Akt and ERK phosphorylation (pAkt/Akt, pERK/ERK): peptide 1.5 μM, 30 min
Excerpt: Pre-treatment with Calpain-2 C-terminal peptide had no effect on Akt and ERK levels. Columns represent means±S.E.M. n=3-6. *p<0.05. One-way ANOVA followed by Bonferroni test.

[7] = target: T2, calpain-2; details: cited from earlier work
[8] = test system: cultured cortical neurons; test: neuroprotection against starvation and oxidative stress (H2O2); format: cell-based; details: 1.5 μM
Excerpt: Columns represent means±S.E.M. n=4. *p<0.05; **p<0.01; ***p<0.001. One-way ANOVA followed by Bonferroni test.

CC[C@H](NC(=O)[C@H](CC(C)C)NC(=O)OCc1ccccc1)C(=O)C(=O)NCc1cc(OC)cc(OC)c1 [Formula 1A]
Ki [1]: 181 ± 73 nM | IC50 [1]: 379 nM | Ratio KiCalpain-1/KiCalpain-2 [2]: 23.2 | Ki [2]: 7.8 ± 2.5 nM | difference in activity between the two diasteriomers, inhibition of calpain-2 ([2]; Formula 1A versus S-R-form): 2000 fold | IC50 [2]: 193 nM

CC(C)C[C@H](NC(=O)OCc1ccccc1)C(=O)N[C@@H](CC(C)C)C(=O)N[C@@H](Cc1ccc(O)cc1)C(=O)CF [Calpain inhibitor IV, carboxybenzyl-Leu-Leu-Tyr-CH2-F] (Cbz-Leu-Leu-Tyr-CH2F)
selectivity among calpains ([3]; Powers et al, 2002, effect appears to vary with cell-type): some selectivity for calpain-1

CC[C@@H](NC(=O)[C@H](CC(C)C)NC(=O)OCc1ccccc1)C(=O)C(=O)NCc1cc(OC)cc(OC)c1 [Formula 1B]
Ki [1]: 514000 ± 151000 nM | IC50 [1]: 569000 nM | Ratio KiCalpain-1/KiCalpain-2 [2]: 34 | Ki [2]: 15600 ± 9200 nM | IC50 [2]: 19400 nM

CC(C)C(NC(=O)OCc1ccccc1)C(=O)NC(C=O)Cc1ccccc1 (stereo not drawn) [Calpain inhibitor III, Z-Val-Phe-CHO, reference compound] (Cbz-Val-Phe-aldehyde; configuration not given here)
LTP after theta-burst stimulation ([4]; 10 μM added prior to TBS): blocks LTP; also recorded: prevented the formation of LTP | short-term potentiation (increase in fEPSPs that follows TBS) ([4]; 10 μM added prior to TBS): did not block short-term potentiation | blocked Bic- and 4-AP-induced neuroprotection against starvation [5]: blocked | effect of calpain-1 peptide on Akt and ERK ([6]; pre-treatment 10 μM): blocks the effect of calpain-1 peptide on Akt and ERK | Ki ([7]; stated for generic inhibitor, source not given, read-out: Ki for calpain-2): ~8 nM

Calpain-1 C-terminal peptide: calpain-1 PDZ-binding domain specific peptide: VTFDLFKWLQLTMFA, or fragment or modification thereof
LTP in rat hippocampal slices on un-scaffolding calpain-1 ([4]; calpain-1 PDZ-peptide): greater LTP | Akt and ERK phosphorylation (pAkt/Akt, pERK/ERK) [6]: increased Akt and ERK phosphorylation | neuroprotection against H2O2 insult [8]: neuroprotection against H2O2 insult | neuroprotection against starvation [8]: neuroprotection against starvation

CCCNC(=O)C(=O)C(Cc1ccccc1)NC(=O)C(CC(C)C)NC(=O)OCc1ccccc1 (stereo not drawn) [Formula XII, z-Leu-Phe-CONH-nPr]
Ki ([3]; Li et al, 1996, read-out: Ki for calpain-1 (μ-calpain), literature): 50 nM | Ki ([3]; U.S. Pat. No. 6,235,929, column 14, Table I, read-out: Ki for calpain-1): 15000 nM | Ki ([7]; Li et al, 1996, read-out: Ki for calpain-2 (m-calpain), literature): 350 nM

Calpain-2 C-terminal peptide: calpain-2 PDZ-binding domain specific peptide: TIQLDLISWLSFSVL, or fragment or modification thereof
Akt and ERK phosphorylation (pAkt/Akt, pERK/ERK) [6]: no effect
